Test results as given in the NIST ThermoML archive (doi:10.1016/j.jct.2016.12.034).

Settings: Crystal; for vapor or sublimation pressure: Transpiration method

CC(=O)Nc1ccc(/C=N/NC(N)=S)cc1 [Thioacetazone]
Settings | Normal melting temperature [°C] | vapor or sublimation pressure [kPa]
404.15 K | – | 1.89e-05
406.15 K | – | 2.23e-05
408.15 K | – | 2.81e-05
410.15 K | – | 3.67e-05
412.15 K | – | 4.46e-05
415.15 K | – | 6.04e-05
417.15 K | – | 7.03e-05
420.15 K | – | 0.0001125
423.15 K | – | 0.0001414
425.15 K | – | 0.0001651
427.15 K | – | 0.0002376
429.15 K | – | 0.0002851
DTA | 229.00 | –
